{"source": "patent US20120065228A1", "about": "“COMPOSITIONS AND METHODS FOR TREATING, CONTROLLING, REDUCING, OR AMELIORATING OCULAR INFLAMMATORY WITH LOWER RISK OF INCREASED INTRAOCULAR PRESSURE” (priority 2007, published 2012)", "assay_type_in_all_cases": "in vivo", "key": {"rabbit eye": {"test_system": "rabbit eye", "experiment": "Pupillary diameter measurement, rabbit paracentesis model", "conditions": "individual eyes; for Pupillary diameter T2: −5 min: 5 min before the first paracentesis; for Pupillary diameter T3: +115 min: 5 min before the second paracentesis; for Pupillary diameter Δ(T3 − T1): +115 min minus −180 min; for Pupillary diameter T1: −180 min: basal", "protocol": "(§1) Each rabbit was placed in a restraint device and tagged with the alphanumeric code. The formulations were instilled (50 μl) into the conjunctival sac of both eyes 180, 120, 90 and 30 min before the first paracentesis; then 15, 30, 90 min after the first paracentesis. To perform the first paracentesis the animals were anaesthetized by intravenous injection of 5 mg/kg Zoletil® (Virbac; 2.5 mg/kg tiletamine HCl and 2.5 mg/kg zolazepam HCl) and one drop of local anesthetic (Novesina®, Novartis) was administered to the eye. Anterior chamber paracentesis was performed with a 26 G needle attached to a tuberculin syringe; the needle was introduced into the anterior chamber through the cornea, taking care not to damage the tissues. Two hours after the ® first paracentesis, the animals were sacrificed with 0.4 ml Tanax® (Intervet International B.V.) and the second paracentesis was performed. About 100 μl of aqueous humor were removed at the second paracentesis. Aqueous humor was immediately split in four aliquots and stored at −80° C. until analysis. Then both eyes were enucleated and the iris-ciliary body was carefully excised, placed in polypropylene tubes, and stored at −80° C. until analysis.\nThe pupillary diameter of both eyes was measured with a Castroviejo caliper 180 min and 5 min before the first paracentesis and 5 min before the second paracentesis.\n(§2) Pupillary diameter, PGE2, protein, PMN, and MPO were expressed as mean±SEM. Statistical analysis was performed using one way ANOVA followed by a Newman-Keuls post hoc test. Clinical score was expressed as % of eyes and the statistical analysis was performed using Kruskal-Wallis followed by a Dunn post hoc test. P<0.05 was considered statistically significant in both cases. Prism 4 software (GraphPad Software, Inc.) was used for the analysis and graphs."}, "[1]": {"test_system": "protein concentration in the aqueous humor", "experiment": "Protein measurement in aqueous humor, rabbit paracentesis model", "conditions": "for Protein in aqueous humor, Mean / Protein in aqueous humor: second paracentesis; for Protein in aqueous humor: individual eyes", "protocol": "as §1\nFor protein concentration determination in the aqueous humor we used the Protein Quantification Kit (Fluka; Cat. No. 77371; Lot. No. 1303129). Five microliters of aqueous humor were diluted to 100 μl with water. Twenty microliters of samples and of standards were load into a 96-well plate and recorded in a plate layout. Samples were treated following the assay procedure described in the kit. A microplate reader (GDV, Italy; model DV 990 B/V6) set at 670 nm was used for making the calibration and analyzing the samples.\nas §2"}, "leukocytes (PMN)": {"test_system": "leukocytes (PMN)", "experiment": "Leukocytes (PMN) measurement in aqueous humor, rabbit paracentesis model", "conditions": "second paracentesis; for PMN in aqueous humor: individual eyes", "protocol": "as §1\nFor the determination of the number of leukocytes we used a haemocytometer (Improved Neubauer Chamber; Bright-line. Hausser Scientific) and a Polyvar 2 microscope (Reichert-Jung).\nas §2"}, "Myeloperoxidase (MPO)": {"test_system": "Myeloperoxidase (MPO)", "experiment": "Myeloperoxidase (MPO) activity in iris-ciliary body, rabbit paracentesis model", "conditions": "for MPO Unit/g: iris-ciliary body samples collected after the second paracentesis, individual eyes (DX/SX); for MPO activity in iris-ciliary body, Mean: after the second paracentesis", "protocol": "as §1\nThe activity of MPO was measured as previously described by Williams et al. The iris-ciliary bodies were carefully dried, weighed and immersed in 1 ml of hexa-decyl-trimethyl-ammonium bromide solution. Then, the samples were sonicated for 10 sec on ice by a ultrasound homogenizer (HD 2070, Bandelin electronic), freeze-thawed three times, sonicated for 10 sec and centrifuged at 14,000 g for 10 min to remove cellular debris. An aliquot of the supernatant (40-200 μl) was diluted to 3 ml with the o-dianisidine 2HCl/H2O2 solution. The change in absorbance at 460 nm was continuously monitored for 5 min by a spectrophotometer (UV/Vis Spectrometer Lambda EZ 201; Perkin Elmer). The slope of the line (Δ/min) was determined for each sample and used to calculate the number of units of MPO in the tissue as follows:\nwere ε=11.3 mM^−1. Values were expressed as units of MPO/g of tissue.\nas §2"}, "[2]": {"conditions": "0.1% topical formulation, listed as BOL"}, "[3]": {"conditions": "0.5% topical formulation, listed as BOL"}, "[4]": {"conditions": "1% topical formulation, listed as BOL"}, "[5]": {"conditions": "0.1% topical formulation, listed as Dex"}}, "note": "Where “and” joins values, the source holds several entries; their conditions need not be identical. Equal values may be shown once.", "data": [{"smiles": "Cc1ccc2c(NCC(O)(CC(C)(C)c3cc(F)cc4c3OCC4)C(F)(F)F)cccc2n1", "note": "(stereo not drawn) [BOL-303242-X]", "values": [{"measurement": "Pupillary diameter T2: −5 min", "setting": "rabbit eye; [2]", "result": "6.5 mm (3×) and 7.0 mm (4×) and 7.5 mm"}, {"measurement": "Pupillary diameter T3: +115 min", "setting": "rabbit eye; [2]", "result": "5.0 mm (2×) and 6.0 mm (3×) and 6.5 mm and 5.5 mm (2×)"}, {"measurement": "Pupillary diameter Δ(T3 − T1)", "setting": "rabbit eye; [2]", "result": "−1.5 mm (4×) and −0.5 mm (2×) and −1.0 mm (2×)"}, {"measurement": "Pupillary diameter T1: −180 min", "setting": "rabbit eye; [2]", "result": "6.5 mm (4×) and 7.0 mm (3×) and 7.5 mm"}, {"measurement": "Pupillary diameter T2: −5 min", "setting": "rabbit eye; [3]", "result": "8.0 mm (3×) and 7.0 mm (4×) and 7.5 mm"}, {"measurement": "Pupillary diameter T3: +115 min", "setting": "rabbit eye; [3]", "result": "6.5 mm (4×) and 6.0 mm (2×) and 7.0 mm (2×)"}, {"measurement": "Pupillary diameter Δ(T3 − T1)", "setting": "rabbit eye; [3]", "result": "−1.5 mm (2×) and −0.5 mm (2×) and −1.0 mm (4×)"}, {"measurement": "Pupillary diameter T1: −180 min", "setting": "rabbit eye; [3]", "result": "8.0 mm (3×) and 7.0 mm (3×) and 7.5 mm (2×)"}, {"measurement": "Pupillary diameter T2: −5 min", "setting": "rabbit eye; [4]", "result": "6.0 mm (2×) and 6.5 mm (4×) and 7.0 mm (2×)"}, {"measurement": "Pupillary diameter T3: +115 min", "setting": "rabbit eye; [4]", "result": "5.5 mm (2×) and 5.0 mm (4×) and 6.0 mm (2×)"}, {"measurement": "Pupillary diameter Δ(T3 − T1)", "setting": "rabbit eye; [4]", "result": "−0.5 mm (3×) and −1.5 mm (2×) and −1.0 mm (3×)"}, {"measurement": "Pupillary diameter T1: −180 min", "setting": "rabbit eye; [4]", "result": "6.0 mm (3×) and 6.5 mm (5×)"}, {"measurement": "Protein in aqueous humor, Mean", "setting": "[1]; 0.1% topical formulation", "result": 33.667, "unit": "mg/mL"}, {"measurement": "Protein in aqueous humor", "setting": "[1]; [2]", "result": "34.87 mg/mL and 34.41 mg/mL and 31.14 mg/mL and 22.82 mg/mL and 29.46 mg/mL and 31.69 mg/mL and 35.70 mg/mL and 49.25 mg/mL"}, {"measurement": "Protein in aqueous humor, statistical significance vs CTR", "setting": "[1]; 0.5% topical formulation, p<0.05", "result": "statistical significance"}, {"measurement": "Protein in aqueous humor, Mean", "setting": "[1]; 0.5% topical formulation", "result": 28.844, "unit": "mg/mL"}, {"measurement": "Protein in aqueous humor", "setting": "[1]; [3]", "result": "33.98 mg/mL and 33.65 mg/mL and 19.99 mg/mL and 27.11 mg/mL and 19.72 mg/mL and 36.35 mg/mL and 27.71 mg/mL and 32.24 mg/mL"}, {"measurement": "Protein in aqueous humor, statistical significance vs CTR", "setting": "[1]; 1% topical formulation, p<0.001", "result": "statistical significance"}, {"measurement": "Protein in aqueous humor, Mean", "setting": "[1]; 1% topical formulation", "result": 21.435, "unit": "mg/mL"}, {"measurement": "Protein in aqueous humor", "setting": "[1]; [4]", "result": "20.99 mg/mL and 21.48 mg/mL and 15.11 mg/mL and 20.28 mg/mL and 20.94 mg/mL and 21.89 mg/mL and 20.03 mg/mL and 30.76 mg/mL"}, {"measurement": "PMN in aqueous humor, Mean", "setting": "leukocytes (PMN); 0.1% topical formulation", "result": 28.333, "unit": "number/μl"}, {"measurement": "PMN in aqueous humor", "setting": "leukocytes (PMN); [2]", "result": "20 number/μl (4×) and 40 number/μl and 50 number/μl"}, {"measurement": "PMN in aqueous humor, Mean", "setting": "leukocytes (PMN); 0.5% topical formulation", "result": 21.250, "unit": "number/μl"}, {"measurement": "PMN in aqueous humor", "setting": "leukocytes (PMN); [3]", "result": "40 number/μl (2×) and 20 number/μl (3×) and 10 number/μl (3×)"}, {"measurement": "PMN in aqueous humor, Mean", "setting": "leukocytes (PMN); 1% topical formulation", "result": 28.750, "unit": "number/μl"}, {"measurement": "PMN in aqueous humor", "setting": "leukocytes (PMN); [4]", "result": "30 number/μl (3×) and 20 number/μl (3×) and 40 number/μl (2×)"}, {"measurement": "MPO Unit/g", "setting": "Myeloperoxidase (MPO); 0.1% BOL, listed as BOL", "result": "1.04 Unit/g and 1.00 Unit/g and 1.14 Unit/g and 1.06 Unit/g and 1.22 Unit/g and 0.61 Unit/g and 1.05 Unit/g and 0.65 Unit/g"}, {"measurement": "MPO activity in iris-ciliary body, Mean", "setting": "Myeloperoxidase (MPO); 0.1% topical formulation", "result": 0.971, "unit": "MPO Unit/g"}, {"measurement": "MPO Unit/g", "setting": "Myeloperoxidase (MPO); 0.5% BOL, listed as BOL", "result": "0.85 Unit/g and 0.93 Unit/g and 0.79 Unit/g and 1.03 Unit/g and 0.75 Unit/g and 0.74 Unit/g and 0.54 Unit/g and 0.58 Unit/g"}, {"measurement": "MPO activity in iris-ciliary body, Mean", "setting": "Myeloperoxidase (MPO); 0.5% topical formulation", "result": 0.775, "unit": "MPO Unit/g"}, {"measurement": "MPO Unit/g", "setting": "Myeloperoxidase (MPO); 1% BOL, listed as BOL", "result": "0.66 Unit/g and 0.68 Unit/g and 0.49 Unit/g and 0.40 Unit/g and 0.34 Unit/g and 1.02 Unit/g and 0.31 Unit/g and 0.43 Unit/g"}, {"measurement": "MPO activity in iris-ciliary body, Mean", "setting": "Myeloperoxidase (MPO); 1% topical formulation", "result": 0.542, "unit": "MPO Unit/g"}]}, {"smiles": "C[C@@H]1C[C@H]2[C@@H]3CCC4=CC(=O)C=C[C@]4(C)[C@@]3(F)[C@@H](O)C[C@]2(C)[C@@]1(O)C(=O)CO", "note": "[dexamethasone, reference compound]", "values": [{"measurement": "Pupillary diameter T2: −5 min", "setting": "rabbit eye; [5]", "result": "5.5 mm and 6.5 mm (3×) and 6.0 mm (2×) and 7.0 mm and 7.5 mm"}, {"measurement": "Pupillary diameter T3: +115 min", "setting": "rabbit eye; [5]", "result": "5.5 mm (3×) and 6.0 mm (2×) and 4.5 mm and 5.0 mm and 6.5 mm"}, {"measurement": "Pupillary diameter Δ(T3 − T1)", "setting": "rabbit eye; [5]", "result": "−0.5 mm (3×) and −1.5 mm (2×) and 0.5 mm and 0.0 mm and −2.0 mm"}, {"measurement": "Pupillary diameter T1: −180 min", "setting": "rabbit eye; [5]", "result": "6.0 mm and 7.0 mm (2×) and 5.5 mm (2×) and 6.5 mm (3×)"}, {"measurement": "Protein in aqueous humor, Mean", "setting": "[1]; 0.1% topical formulation", "result": 33.457, "unit": "mg/mL"}, {"measurement": "Protein in aqueous humor", "setting": "[1]; [5]", "result": "31.31 mg/mL and 31.81 mg/mL and 35.95 mg/mL and 37.15 mg/mL and 32.12 mg/mL and 32.40 mg/mL"}, {"measurement": "PMN in aqueous humor, Mean", "setting": "leukocytes (PMN); 0.1% topical formulation", "result": 30.000, "unit": "number/μl"}, {"measurement": "PMN in aqueous humor", "setting": "leukocytes (PMN); [5]", "result": "20 number/μl (3×) and 50 number/μl and 40 number/μl and 30 number/μl"}, {"measurement": "MPO Unit/g", "setting": "Myeloperoxidase (MPO); 0.1% Dex, listed as Dex", "result": "0.71 Unit/g and 0.60 Unit/g and 1.32 Unit/g and 0.48 Unit/g (2×) and 0.39 Unit/g and 0.45 Unit/g and 0.51 Unit/g"}, {"measurement": "MPO activity in iris-ciliary body, Mean", "setting": "Myeloperoxidase (MPO); 0.1% topical formulation", "result": 0.618, "unit": "MPO Unit/g"}]}]}
